# Counter-ions that a name gives are not always drawn.
# What was measured:
# LSD1 = LSD1 (Homo sapiens (Human), UniProt O60341); experiment: In vitro enzyme inhibition assay - LSD1 (HTRF); type: biochemical
# Method: 1. In Vitro Enzyme Inhibition Assay—LSD1
# Initially, a master solution of 90 μM test compound (dissolved in DMSO) was prepared and sequentially diluted with DMSO in a 5-fold concentration gradient to yield a total of 9 concentrations of the compound working solution 1 (90×). Subsequently these 9 concentrations of working solution 1 were sequentially diluted by a 30-fold concentration gradient, i.e., 2 μL of working solution 1 was aspirated and added to 58 μL of Buffer, mixed on a vortex mixer with sufficient shaking to yield 9 concentrations of the screening test compound working solution 2 (3×). […] The mixture was incubated at room temperature for 15 minutes. […] Afterward, 2 μL of a termination solution (containing 5.4 mM 2-PCPA) was added to each well, mixed evenly, and incubated for another 15 minutes. Finally 4 μL of a pre-mixed antibody solution of Eu-anti H3K4 (PerkinElmer, TRF0404-D) and allophycocyanin (Prozyme, PJ27S) (1:1) was added to each well, mixed evenly, and incubated for 60 minutes. […] The inhibition rate was calculated through the following formula: […]
# (§1) Note: ‘Negative’ refers to the group without the inhibitor; ‘Blank’ refers to the group without the enzyme.
# (§2) The IC50 value was calculated by fitting the inhibition rate by GraphPad Prism software, employing log (inhibitor) vs. response-Variable Slope (four parameters) model.
# pan-HDAC = experiment: In vitro enzyme inhibition assay - HDAC (HDAC-Glo I/II), pan-HDAC; type: biochemical
# Method: 2. In Vitro Enzyme Inhibition Assay—HDAC
# The effect of the compound on the enzymatic activity of pan-HDAC and two isoforms (HDAC1 and HDAC8) was examined using the HDAC-Glo I/II Assay and Screening System assay to assess the level of inhibition of HDAC protease activity and selectivity in each isoform. The proteins and detection reagents were from the HDAC-Glo™ I/II Assay and Screening System (Promega). A 1 mM stock solution of the compound was prepared in DMSO and diluted in a 5-fold gradient to create a series of 8 concentrations, and a specific volume of the highest concentration was diluted 25 times with HDAC Buffer to obtain 4× working solution of the compound. […] The 384-well plate was then read on a multifunctional microplate reader, with the Luminescence channel selected to record Luminescence values (RLU). The inhibition rate was calculated using the following formula: […]
# as §1, §2
# NCI-H1417 cells = experiment: In vitro cell inhibition assay - H1417 cell proliferation (CellTiter-Glo); type: cell-based; details: Homo sapiens, NCI-H1417, H1417 small cell lung cancer cell proliferation
# Method: 3. In Vitro Cell Inhibition Assay—H1417 Cell Proliferation
# The inhibitory effect of the compounds on cell proliferation was assessed by detecting the number of viable cells using the CellTiter-Glo® reagent. […] The compounds were sequentially diluted in a 5-fold concentration gradient with DMSO to obtain 8 different concentrations o. These were diluted with BEGM (containing 10% FBS) cell culture medium to obtain the compound working solution (2×), which was added to the cell supernatant at 100 μL per well. The incubation continued for 7 days at 37° C., 5% CO2. The plate was then removed and equilibrated to room temperature (25° C.) along with the CellTiter-Glo® mixing reagent for 10-30 minutes. After centrifugation, 100 μL of the culture medium was carefully aspirated from each well, and 85 μL of CellTiter-Glo® reagent was added. The cells were thoroughly mixed with the CellTiter-Glo® mixing reagent using a microplate shaker for 2 min. and then incubated at room temperature for 10 min. The 96-well plate was subsequently placed on a multifunctional microplate reader to record the Luminescence values (RLU). • The inhibition rate was calculated using the following formula: […]
# (§3) Note: ‘Negative’ refers to the group without inhibitors; ‘Blank’ refers to the group without cells.
# (§4) The IC50 value was determined by fitting the inhibition rate by GraphPad Prism software.
# NCI-H69 cells = experiment: In vitro cell inhibition assay - NCI-H69 cell proliferation (CellTiter-Glo); type: cell-based; details: Homo sapiens, NCI-H69, H69 small cell lung cancer cell proliferation
# Method: 4. In Vitro Cell Inhibition Assay—NCI-H69 Cell Proliferation
# The inhibitory effect of the compounds on cell proliferation was assessed by detecting the number of viable cells using the CellTiter-Glo® reagent. NCI-H69 cells in the logarithmic growth phase were collected and inoculated into transparent bottom 96-well plates at a density 1×10^3 cells per well with 100 μL medium, and incubated at 37° C., 5% CO2 overnight. The compounds were sequentially diluted in a 5-fold concentration gradient with DMSO to obtain 8 different concentrations These were then diluted with RPMI-640 (containing 20% FBS) cell culture medium to obtain the compounds working solution (2×), which was added to the cell supernatant at 100 μL per well. The incubation continued for 7 days at 37° C., 5% CO2. The plate was then removed and equilibrated to room temperature (25° C.) along with the CellTiter-Glo® mixing reagent for 10-30 minutes. After centrifugation at 1200 rpm for 5 minutes, 120 μL of the culture medium was carefully aspirated from each well, and 60 μL of CellTiter-Glo® reagent was added. The cells were thoroughly mixed with the CellTiter-Glo® mixing reagent using a microplate shaker for 2 min. and then incubated at room temperature for 10 min. The 96-well plate was subsequently placed on a multifunctional microplate reader to record the Luminescence values (RLU).
# The inhibition rate was calculated using the following formula: […]
# as §3, §4
IC50 (LSD1) [nM],IC50 (pan-HDAC) [nM],IC50 (NCI-H1417 cells) [nM],IC50 (NCI-H69 cells) [nM],SMILES
0.19,10.6,24.5,305,"CC(C)(O)Cn1nnc2cc(-c3cnc(N4CCC(NCc5ccc(/C=C/C(=O)NO)cn5)CC4)c(C#N)c3-c3ccc(C#N)c(F)c3)ccc21 [Example 224, (E)-3-(6-(((1-(3-Cyano-4-(4-cyano-3-fluorophenyl)-5-(1-(2-hydroxy-2-methylpropyl)-1H-benzo[d][1,2,3]triazol-5-yl)pyridin-2-yl)piperidin-4-yl)amino)methyl)pyridin-3-yl)-N-hydroxyacrylamide formate]"
193,0.93,2.66,1.87,"COc1ccc(-c2cnc(N3CCC(NCc4ccc(/C=C/C(=O)NO)cc4F)CC3)c(F)c2-c2ccc(C#N)nc2)cc1O [Example 269, (E)-3-(4-(((1-(6-Cyano-3′-fluoro-5′-(3-hydroxy-4-methoxyphenyl)-[3,4′-bipyridin]-2′-yl)piperidin-4-yl)amino)methyl)-3-fluorophenyl)-N-hydroxyacrylamide hydrochloride]"
0.9,24.3,91.7,84.8,"COc1ccc(-c2cnc(N3CCC(CNCc4ccc(/C=C/C(=O)NO)cc4)C3)c(C#N)c2-c2ccc(C#N)c(F)c2)cc1O (centres unmarked) [Example 228, (E)-3-(4-((((1-(3-Cyano-4-(4-cyano-3-fluorophenyl)-5-(3-hydroxy-4-methoxyphenyl)pyridin-2-yl)pyrrolidin-3-yl)methyl)amino)methyl)phenyl)-N-hydroxyacrylamide hydrochloride]"
0.39,68,2.65,295,"CC(C)(O)COc1ccc(-c2cnc(N3CCC(C)(NCc4ccc(/C=C/C(=O)NO)cc4)CC3)c(C#N)c2-c2ccc(C#N)c(F)c2)cc1O [Example 215, (E)-3-(4-(((1-(3-Cyano-4-(4-cyano-3-fluorophenyl)-5-(3-hydroxy-4-(2-hydroxy-2-methylpropoxy)phenyl)pyridin-2-yl)-4-methylpiperidin-4-yl)amino)methyl)phenyl)-N-hydroxyacrylamide formate]"
0.03,11.5,6.42,35.8,"COc1ccc(-c2cnc(N3CCC(NCc4ccc(CCC(=O)NO)cc4Cl)CC3)c(C#N)c2-c2ccc(C#N)c(F)c2)cc1O [Example 222, 3-(3-chloro-4-((1-(3-cyano-4-(4-cyano-3-fluorophenyl)-5-(3-hydroxy-4-methoxyphenyl)pyridin-2-yl)piperidin-4-yl)amino)methyl) phenyl)-N-hydroxypropanamide formate]"
2.38,8.01,2.35,19.2,"CC(NC1CCN(c2ncc(-c3ccc(OCC(C)(C)O)c(O)c3)c(-c3ccc(C#N)c(F)c3)c2C#N)CC1)c1ccc(/C=C/C(=O)NO)cc1 (centres unmarked) [Example 235, (E)-3-(4-(1-((1-(3-Cyano-4-(4-cyano-3-fluorophenyl)-5-(3-hydroxy-4-(2-hydroxy-2-methylpropoxy)phenyl)pyridin-2-yl)piperidin-4-yl)amino)ethyl)phenyl)-N-hydroxyacrylamide formate]"
23.8,21.6,> 1000,3270,"N#Cc1ccc(-c2nc(N3CCC(N)CC3)cc(OCCCCCCC(=O)NO)c2-c2ccc(OCCO)cc2)cc1F [Example 17, 7-((6-(4-Aminopiperidin-1-yl)-2-(4-cyano-3-fluorophenyl)-3-(4-(2-hydroxyethoxy)phenyl)pyridin-4-yl)oxy)-N-hydroxyheptanamide formate]"
25.2,0.3,16.8,13.3,"COc1ccc(-c2cnc(N3CCC(NCc4ccc(/C=C/C(=O)NO)cc4)CC3)cc2-c2ccc(C#N)nc2)cc1O [Example 272, ((E)-3-(4-(((1-(6-Cyano-5′-(3-hydroxy-4-methoxyphenyl)-[3,4′-bipyridin]-2′-yl)piperidin-4-yl)amino)methyl)phenyl)-N-hydroxyacrylamide formate]"
1.45,10.3,4.67,77,"COc1ccc(-c2cnc(N3CCC(NCc4ncc(/C=C/C(=O)NO)cc4F)CC3)c(C#N)c2-c2ccc(C#N)c(F)c2)cc1O [Example 230, (E)-3-(6-(((1-(3-Cyano-4-(4-cyano-3-fluorophenyl)-5-(3-hydroxy-4-methoxyphenyl)pyridin-2-yl)piperidin-4-yl)amino)methyl)-5-fluoropyridin-3-yl)-N-hydroxyacrylamide formate]"
1.45,27.5,221,2990,"COc1ccc(-c2c(OCCCCCCC(=O)NO)cc(N3CC4CC3CC4N)nc2-c2ccc(C#N)c(F)c2)cc1O (centres unmarked) [Example 15, 7-((6-(5-Amino-2-azabicyclo[2.2.1]heptan-2-yl)-2-(4-cyano-3-fluorophenyl)-3-(3-hydroxy-4-methoxyphenyl)pyridin-4-yl)oxy)-N-hydroxyheptanamide hydrochloride]"
0.21,9.28,7.13,149,"COc1ccc(-c2cnc(N3CCC(NCc4ccc(CC(F)C(=O)NO)cc4)CC3)c(C#N)c2-c2ccc(C#N)c(F)c2)cc1O (centres unmarked) [Example 219, 3-(4-((1-(3-Cyano-4-(4-cyano-3-fluorophenyl)-5-(3-hydroxy-4-methoxyphenyl)pyridin-2-yl)piperidin-4-yl)amino)methyl) phenyl)-2-fluoro-N-hydroxypropanamide formate]"
342,0.3,13.2,5.25,"COC(=O)c1ccc(-c2c(-c3ccc(OC)c(O)c3)cnc(N3CCC(NCc4ccc(/C=C/C(=O)NO)cc4)CC3)c2C#N)cn1 [Example 253, Methyl (E)-3′-cyano-5′-(3-hydroxy-4-methoxyphenyl)-2′-(4-((4-(3-(hydroxyamino)-3-oxoprop-1-en-1-yl)benzyl)amino)piperidin-1-yl)-[3,4′-bipyridine]-6-carboxylate formate]"
2.44,16,18.4,17.8,"COc1ccc(-c2cnc(N3CCC(NCc4ccc(/C=C/C(=O)NO)cc4)C(C)C3)c(C#N)c2-c2ccc(C#N)c(F)c2)cc1O (centres unmarked) [Example 242, (E)-3-(4-(((1-(3-Cyano-4-(4-cyano-3-fluorophenyl)-5-(3-hydroxy-4-methoxyphenyl)pyridin-2-yl)-3-methylpiperidin-4-yl)amino)methyl)-N-hydroxyacrylamide formate]"
35.4,0.41,5.77,4.69,"COc1ccc(-c2cnc(N3CCC(NCc4ccc(/C=C/C(=O)NO)cc4)CC3)c(C)c2-c2ccc(C#N)nc2)cc1O [Example 254, (E)-3-(4-(((1-(6-Cyano-5′-(3-hydroxy-4-methoxyphenyl)-3′-methyl-[3,4′-bipyridin]-2′-yl)piperidin-4-yl)amino)methyl)phenyl)-N-hydroxyacrylamide formate]"
